Data: PubChem BioAssay AID1963985 (Molecular Pharmacology Branch, DTP, NCI, 2024)

System: 252836-082-R-J2-PDC tumor spheroids, viability
Test: Anticancer human tumor 252836-082-R-J2-PDC patient-derived head and neck squamous cell carcinoma cell line growth inhibition [PI3K]
Conditions: spheroids with HUVEC and MSC; for IC50: curve of first compound; for viability, T/C: stronger effect = lower value
In short: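 Multi-cell spheroids combine tumor cells with HUVEC and human MSCs, treated with targeted agents alone or with inavolisib, alpelisib, duvelisib or copanlisib. Concentrations fall in half-log steps from at or near clinical Cmax, or from 10 microM where Cmax is unknown; viability read-out.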
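Further: spheroids exposed to agents for seven days before readout.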
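Wherever viability, T/C is given: percent of vehicle DMSO control viability so 100% = untreated growth.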

With `CNC(=O)c1ccc(N2C(=S)N(c3ccc(C#N)c(C(F)(F)F)c3)C(=O)C2(C)C)cc1F` + CC(Nc1ncnc2nc[nH]c12)c1cc2cccc(Cl)c2c(=O)n1-c1ccccc1 as the compound, how does the IC50 (second compound 0.0316 µM) read?
Its IC50 is > 10000 nM.

What about the IC50 (second compound 0.1 µM) of the same compound?
Its IC50 is > 10000 nM.

And the IC50 (second compound 0.316 µM)?
Its IC50 is > 10000 nM.

And the IC50 (second compound 1 µM)?
Its IC50 is > 10000 nM.

And the IC50 (second compound 3.16 µM)?
The IC50 was > 10000 nM.

And the IC50 (second compound 10 µM)?
Its IC50 is > 10000 nM.

And the viability, T/C (second compound 0.0316 µM, first compound 0.0316 µM)?
Its viability, T/C is 103%.

What about the viability, T/C (second compound 0.0316 µM, first compound 0.1 µM) of the same compound?
Its viability, T/C is 83.9%.

And the viability, T/C (second compound 0.0316 µM, first compound 0.316 µM)?
The viability, T/C was 91.7%.

What about the viability, T/C (second compound 0.0316 µM, first compound 1 µM) of the same compound?
Its viability, T/C is 85.1%.

And the viability, T/C (second compound 0.0316 µM, first compound 3.16 µM)?
The viability, T/C was 98.2%.

What about the viability, T/C (second compound 0.0316 µM, first compound 10 µM) of the same compound?
The viability, T/C was 93.4%.

What about the viability, T/C (second compound 0.1 µM, first compound 0.0316 µM) of the same compound?
The viability, T/C was 86.4%.

What about the viability, T/C (second compound 0.1 µM, first compound 0.1 µM) of the same compound?
The viability, T/C was 83.5%.

What about the viability, T/C (second compound 0.1 µM, first compound 0.316 µM) of the same compound?
The viability, T/C was 113%.

What about the viability, T/C (second compound 0.1 µM, first compound 1 µM) of the same compound?
Its viability, T/C is 91.2%.

What about the viability, T/C (second compound 0.1 µM, first compound 3.16 µM) of the same compound?
The viability, T/C was 86.2%.

What about the viability, T/C (second compound 0.1 µM, first compound 10 µM) of the same compound?
Its viability, T/C is 78.6%.

What about the viability, T/C (second compound 0.316 µM, first compound 0.0316 µM) of the same compound?
The viability, T/C was 102%.

And the viability, T/C (second compound 0.316 µM, first compound 0.1 µM)?
Its viability, T/C is 79.5%.

What about the viability, T/C (second compound 0.316 µM, first compound 0.316 µM) of the same compound?
The viability, T/C was 90.5%.

What about the viability, T/C (second compound 0.316 µM, first compound 1 µM) of the same compound?
Its viability, T/C is 90.2%.

What about the viability, T/C (second compound 0.316 µM, first compound 3.16 µM) of the same compound?
The viability, T/C was 88.7%.

What about the viability, T/C (second compound 0.316 µM, first compound 10 µM) of the same compound?
Its viability, T/C is 78%.

And the viability, T/C (second compound 1 µM, first compound 0.0316 µM)?
The viability, T/C was 80.9%.

What about the viability, T/C (second compound 1 µM, first compound 0.1 µM) of the same compound?
The viability, T/C was 94.9%.

What about the viability, T/C (second compound 1 µM, first compound 0.316 µM) of the same compound?
The viability, T/C was 90.9%.

What about the viability, T/C (second compound 1 µM, first compound 1 µM) of the same compound?
Its viability, T/C is 89.6%.

And the viability, T/C (second compound 1 µM, first compound 3.16 µM)?
Its viability, T/C is 94%.

And the viability, T/C (second compound 1 µM, first compound 10 µM)?
Its viability, T/C is 80.6%.

And the viability, T/C (second compound 3.16 µM, first compound 0.0316 µM)?
The viability, T/C was 85.7%.

And the viability, T/C (second compound 3.16 µM, first compound 0.1 µM)?
The viability, T/C was 73.2%.

And the viability, T/C (second compound 3.16 µM, first compound 0.316 µM)?
The viability, T/C was 75.7%.

What about the viability, T/C (second compound 3.16 µM, first compound 1 µM) of the same compound?
Its viability, T/C is 74.3%.

And the viability, T/C (second compound 3.16 µM, first compound 3.16 µM)?
The viability, T/C was 86.4%.

And the viability, T/C (second compound 3.16 µM, first compound 10 µM)?
Its viability, T/C is 62.2%.

And the viability, T/C (second compound 10 µM, first compound 0.0316 µM)?
The viability, T/C was 63%.

What about the viability, T/C (second compound 10 µM, first compound 0.1 µM) of the same compound?
Its viability, T/C is 71.8%.

And the viability, T/C (second compound 10 µM, first compound 0.316 µM)?
Its viability, T/C is 70.9%.

And the viability, T/C (second compound 10 µM, first compound 1 µM)?
The viability, T/C was 70.5%.

And the viability, T/C (second compound 10 µM, first compound 3.16 µM)?
The viability, T/C was 69.8%.

And the viability, T/C (second compound 10 µM, first compound 10 µM)?
The viability, T/C was 59.3%.

`Cn1cnc2c(F)c(Nc3ccc(Br)cc3Cl)c(C(=O)NOCCO)cc21` + CC(Nc1ncnc2nc[nH]c12)c1cc2cccc(Cl)c2c(=O)n1-c1ccccc1 was tested. Which IC50 (second compound 0.0316 µM) did it give?
Its IC50 is 2200 nM.

What about the IC50 (second compound 0.1 µM) of the same compound?
Its IC50 is 2800 nM.

What about the IC50 (second compound 0.316 µM) of the same compound?
The IC50 was 2610 nM.

What about the IC50 (second compound 1 µM) of the same compound?
Its IC50 is 2100 nM.

What about the IC50 (second compound 3.16 µM) of the same compound?
Its IC50 is 1480 nM.

And the IC50 (second compound 10 µM)?
The IC50 was 923 nM.

And the viability, T/C (second compound 0.0316 µM, first compound 0.00949 µM)?
The viability, T/C was 102%.

What about the viability, T/C (second compound 0.0316 µM, first compound 0.03 µM) of the same compound?
The viability, T/C was 76.5%.

What about the viability, T/C (second compound 0.0316 µM, first compound 0.0949 µM) of the same compound?
The viability, T/C was 81.5%.

And the viability, T/C (second compound 0.0316 µM, first compound 0.3 µM)?
The viability, T/C was 92.7%.

And the viability, T/C (second compound 0.0316 µM, first compound 0.949 µM)?
Its viability, T/C is 65.5%.

What about the viability, T/C (second compound 0.0316 µM, first compound 3 µM) of the same compound?
The viability, T/C was 44.2%.

What about the viability, T/C (second compound 0.1 µM, first compound 0.00949 µM) of the same compound?
Its viability, T/C is 89.9%.

And the viability, T/C (second compound 0.1 µM, first compound 0.03 µM)?
The viability, T/C was 77.2%.

And the viability, T/C (second compound 0.1 µM, first compound 0.0949 µM)?
The viability, T/C was 88.8%.

And the viability, T/C (second compound 0.1 µM, first compound 0.3 µM)?
The viability, T/C was 95.3%.

And the viability, T/C (second compound 0.1 µM, first compound 0.949 µM)?
The viability, T/C was 74.5%.

And the viability, T/C (second compound 0.1 µM, first compound 3 µM)?
The viability, T/C was 48.4%.

What about the viability, T/C (second compound 0.316 µM, first compound 0.00949 µM) of the same compound?
Its viability, T/C is 88%.

What about the viability, T/C (second compound 0.316 µM, first compound 0.03 µM) of the same compound?
Its viability, T/C is 87.2%.

And the viability, T/C (second compound 0.316 µM, first compound 0.0949 µM)?
Its viability, T/C is 88.6%.

And the viability, T/C (second compound 0.316 µM, first compound 0.3 µM)?
The viability, T/C was 79.3%.

And the viability, T/C (second compound 0.316 µM, first compound 0.949 µM)?
The viability, T/C was 77.1%.

What about the viability, T/C (second compound 0.316 µM, first compound 3 µM) of the same compound?
Its viability, T/C is 46%.

What about the viability, T/C (second compound 1 µM, first compound 0.00949 µM) of the same compound?
Its viability, T/C is 89.8%.

And the viability, T/C (second compound 1 µM, first compound 0.03 µM)?
Its viability, T/C is 77.3%.

And the viability, T/C (second compound 1 µM, first compound 0.0949 µM)?
The viability, T/C was 85.3%.

What about the viability, T/C (second compound 1 µM, first compound 0.3 µM) of the same compound?
The viability, T/C was 75.6%.

What about the viability, T/C (second compound 1 µM, first compound 0.949 µM) of the same compound?
The viability, T/C was 72%.

And the viability, T/C (second compound 1 µM, first compound 3 µM)?
The viability, T/C was 40.4%.

What about the viability, T/C (second compound 3.16 µM, first compound 0.00949 µM) of the same compound?
Its viability, T/C is 82.1%.

And the viability, T/C (second compound 3.16 µM, first compound 0.03 µM)?
Its viability, T/C is 78.5%.

What about the viability, T/C (second compound 3.16 µM, first compound 0.0949 µM) of the same compound?
The viability, T/C was 64.6%.

What about the viability, T/C (second compound 3.16 µM, first compound 0.3 µM) of the same compound?
The viability, T/C was 66%.

What about the viability, T/C (second compound 3.16 µM, first compound 0.949 µM) of the same compound?
Its viability, T/C is 61.3%.

And the viability, T/C (second compound 3.16 µM, first compound 3 µM)?
The viability, T/C was 38.6%.

And the viability, T/C (second compound 10 µM, first compound 0.00949 µM)?
Its viability, T/C is 67.3%.

And the viability, T/C (second compound 10 µM, first compound 0.03 µM)?
The viability, T/C was 67.1%.

What about the viability, T/C (second compound 10 µM, first compound 0.0949 µM) of the same compound?
The viability, T/C was 64.2%.

What about the viability, T/C (second compound 10 µM, first compound 0.3 µM) of the same compound?
Its viability, T/C is 54.4%.

What about the viability, T/C (second compound 10 µM, first compound 0.949 µM) of the same compound?
Its viability, T/C is 53.6%.

And the viability, T/C (second compound 10 µM, first compound 3 µM)?
Its viability, T/C is 31.4%.
